Measured values taken from US20190078052A1, “ENGINEERED ADHESIVE SUBSTRATES FOR HIGH-THROUGHPUT CELL ISOLATION AND SEPARATION” (ARIZONA BOARD OF REGENTS ON BEHALF OF ARIZONA STATE …, priority 2016, published 2019).
Entries after “also recorded” stand apart in the source; their conditions may differ.

Tests used:
phospho-AKT = settings: cited from earlier work
T24 3D-DTMs [1] = test: Transfer of dormant T24 3D-DTMs from AM3 to AM1 Amikagel: cell escape, filopodia, microcolony formation; type: cell-based; settings: for formation of micrometastasis-like nodules / microcolonies: 100 μM pre-treated, 15 days after transfer to AM1
Method: 1 ml of amikagel AM1, AM2 and AM3 pre-gel solutions were filtered through a 0.20 μm filter and 40 μL of the filtrate was added to each well of a 96 well plate. The plates were sealed with paraffin tape (Parafilm, Menasha, Wis.) and incubated in an oven maintained at 40° C. for 7.5 hours. After gelation, the surfaces of Amikagels were washed with 150 μL of Nanopure® water for 12 hours, in order to remove traces of unreacted monomers.
All 3DTM (3D tumor microenvironments) experiments were set up by liquid overlay culture (2) of cells on top of Amikagel surface in a total volume of […] media/well; either 100,000 cancer cells alone (single culture) or 50,000 stromal cells followed by 50,000 cancer cells (co-culture) were incubated, unless indicated otherwise in specific cases. After 48 hours of incubation, 50% of the media in the wells was replaced with fresh media i.e. DMEM/RPMI+10% (v/v) FBS+1% (v/v) Pen-Strep at regular intervals of 48 hours. Care was taken to withdraw and add the media slowly so as to not perturb 3DTM formation. Fresh media was added every 48 hours following cell plating. For 3DTM generation on 24 well plates, 400 μL of pre-gel volume was used instead of 40 μl. Different co-culture 3DTM systems are represented as fibroblast/stromal cells-epithelial cells (e.g. NIH3T3-T24, WPMY-1-T24) to accurately indicate the sequence of their addition. In most cases, 3DTMs were formed 5-7 days following culture on Amikagels.
T24 3DTMs were first formed on AM3, and transferred to AM1s on the seventh day following initial cell seeding, in order to investigate the role of chemo-mechanical properties of Amikagels on 3DTM fate, and migration of metastatic cells out of the 3DTM spheroid. Upon transfer, cells from 3DTMs were monitored for cell spreading and motility on the gel for an additional 7 days. After 7 days, cell cycle analysis and N-cadherin analysis was carried out on the all 3DTMs. Long-term experiments were also carried out where 3D-DTMs were continuously monitored for 15 days after their transfer from AM3 gel to AM1 gel.

phospho-FAK = settings: cited from earlier work
T24 3D-DTMs [2] = test: Viability of T24 3D-DTMs after docetaxel treatment; type: cell-based; settings: following treatment
cdc42 = cdc42 (Homo sapiens, UniProt P60953); settings: other cancer cell lines; cited from earlier work
T24 3D-DTMs [3] = test: Cell cycle analysis of T24 3D-DTMs by propidium iodide flow cytometry; type: cell-based
Method: Following five days of incubation on AM3, 3DTMs of T24 cells with NIH3T3 murine fibroblast cells were harvested for cell cycle analysis. Four or five individual 3DTMs of T24 cells alone or UMUC3 cells alone were harvested on the 7th day after seeding on Amikagels, collected in an eppendorf tube. 50 μL of 5 mg/ml collagenase was added to 3DTMs prepared using fibroblast helper cells for 30 minutes at 37° C. in order to facilitate their disassembly by gentle pipetting. Single cell 3DTMs were disassembled using manual pipetting.
Disassembled 3DTM cells were then centrifuged at 200 r.c.f. in order to collect the cell pellet. The pellet was resuspended in a solution of 1% v/v 1× Triton-X, 5% (v/v) fetal bovine serum (FBS), 50 μg/mL propidium iodide, and 0.006-0.01 units/mL ribonuclease A. After incubation for 30 minutes on ice, cells were analyzed for their cell cycle profiles using flow cytometry; the propidium iodide (PI) signal was detected using an excitation at 535 nm and emission at 617 nm.
Voltages of the FL2-A, SSC and FSC channels were adjusted in order to obtain best representative peaks for alignment of 2n (diploidy−G0/G1) peak to 200 intensity units during flow cytometry. FL2A (FL2-Area) provides the information regarding the pulse area of the emitted fluorescence signal (total cell fluorescence) whereas SSC and FSC provide the information regarding the […] light from the sample. FSC is a measure of diffracted light from the sample proportional to cell surface area or size and SSC is proportional to cell granularity or internal complexity.

cdc42, sequence (P60953 whole entry, species assumed): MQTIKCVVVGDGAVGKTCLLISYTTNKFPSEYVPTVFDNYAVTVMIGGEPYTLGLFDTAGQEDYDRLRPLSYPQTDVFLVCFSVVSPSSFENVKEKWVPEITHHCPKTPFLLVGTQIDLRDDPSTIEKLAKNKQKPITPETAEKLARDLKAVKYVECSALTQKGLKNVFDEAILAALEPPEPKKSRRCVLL

CC(=O)O[C@@]12CO[C@@H]1C[C@H](O)[C@@]1(C)C(=O)[C@H](O)C3=C(C)[C@@H](OC(=O)[C@H](O)[C@@H](NC(=O)OC(C)(C)C)c4ccccc4)C[C@@](O)([C@@H](OC(=O)c4ccccc4)[C@H]21)C3(C)C [Docetaxel, docetaxel]
reduction of phospho-AKT expression compared to untreated T24 cells (phospho-AKT): ~41% | cellular escape from the mother 3D-DTM (T24 3D-DTMs [1]; 12.5 μM-100 μM): significantly reduced | formation of micrometastasis-like nodules / microcolonies (T24 3D-DTMs [1]): significantly reduced cell escape and microcolony formation | formation of micrometastasis-like nodules / microcolonies (T24 3D-DTMs [1]; listed as docetaxel): drastically reduced | cells escaping the mother spheroid (T24 3D-DTMs [1]; 100 μM pre-treatment on AM3, 48 hours after transfer to AM1): significantly lesser number of cells escaped | filopodia formation on cells shed on AM1 (T24 3D-DTMs [1]; after treatment of T24 3D-DTMs): did not show filopodia formation; also recorded: not observed | reduction of phospho-FAK expression compared to untreated T24 cells (phospho-FAK): ~34% | viability of treated T24 3D-DTMs (T24 3D-DTMs [2]): remained viable | inhibition of cdc42 (cdc42): effectively inhibit | cells in the G2/M phase, treated vs untreated 3D-DTM (T24 3D-DTMs [3]; 96 hours on AM3): No significant differences | cells in the sub-G0/G1 phase of the cell cycle, treated mother 3D-DTM (T24 3D-DTMs [3]; 96 hours on AM3): modest increase | cell cycle profile of treated T24 3D-DTMs (T24 3D-DTMs [3]; following treatment): dormant cell cycle profile
